Measured values taken from US20240108618A1, “KRAS G12C INHIBITOR DOSING REGIMENS” (Eli Lilly and Company, priority 2022, published 2024).
Values joined by “and” are separate entries in the source; they are usually repeats but may differ in a detail not shown here. Identical values can stand only once.

System: KRAS G12C-mutant advanced solid tumors
Assay: NCT04956640 Phase 1a monotherapy clinical response (BOR, ORR, DCR, DOR, TTR, % change from baseline, treatment duration)
Assay type: in vivo, human
Conditions: for Best overall response (BOR): Complete Response (CR), % / Best overall response (BOR): No Evaluable (NE), % / Best overall response (BOR): Partial Response (PR), % / Best overall response (BOR): Partial Response, pending confirmation and ongoing (uPR), % / Best overall response (BOR): Progressive Disease (PD), % / Best overall response (BOR): Stable Disease (SD), % / Disease control rate (CR + PR + uPR + SD), % / Objective response rate (CR + PR), % / Objective response rate, confirmed and unconfirmed (CR + PR + uPR), %: Phase 1a NSCLC patients; for Duration of response (DOR) 6 to <9 months / Duration of response (DOR) <6 months / Time to response (TTR) 2 to <4 months / Time to response (TTR) 4 to <6 months / Time to response (TTR) 6 to <9 months / Time to response (TTR) <2 months: Phase 1a responders
Protocol: The term “BOR” as used herein refers to best overall response based on investigator assessments using RECIST criteria (version 1.1). The minimum duration for BOR of SD is at least 6 weeks after the date of first dose of study drug.
The term “DOR” as used herein refers to duration of response, wherein DOR in months is calculated as the event or censoring date minus the response start date plus 1 day divided by 30.4375.
The term “ORR” as used herein refers to objective response rate, wherein objective response rate is the proportion of patients with BOR of CR or PR. Objective response rate, unconfirmed, is the proportion of patients with BOR of CR, PR, or uPR.
The term “TTR” as used herein refers to time to response, wherein TTR in months is calculated as response start date minus first dose date plus 1 day divided by 30.4375.
NCT04956640 includes Phase 1a dose escalation (Part A of NCT04956640, see Table 3) followed by a Phase 1b dose expansion (Parts B to E of NCT04956640, see Table 4). […] Phase 1b dose expansion will include 12 cohorts (See Table 4) to further evaluate safety and clinical activity.

[1] = Without Prior KRAS G12Ci (N = 8)
[2] = starting dose 50 mg BID (N = 14)
[3] = starting dose 100 mg BID (N = 24)
[4] = starting dose 150 mg BID (N = 25)
[5] = starting dose 200 mg BID (N = 12)

C=CC(=O)N1CCN2C(=O)c3cc(F)c(-c4ccc(F)c5sc(N)c(C#N)c45)c(Cl)c3OCC[C@H]2C1 (single isomer, unassigned) [Formula I]
Best observed response PD (unconfirmed and confirmed), patients (CRC): 1
Best observed response PR (unconfirmed and confirmed), patients (CRC): 1
Best observed response SD, patients (CRC): 13
Best observed response PD (unconfirmed and confirmed), patients (NSCLC naïve to KRAS G12Ci): 1
Best observed response SD, patients (NSCLC naïve to KRAS G12Ci): 1
Best observed response PD (unconfirmed and confirmed), patients (NSCLC with prior KRAS G12Ci): 3
Best observed response PR (unconfirmed and confirmed), patients (NSCLC with prior KRAS G12Ci): 1
Best observed response SD, patients (NSCLC with prior KRAS G12Ci): 3
Best observed response PD (unconfirmed and confirmed), patients (PANC): 2
Best observed response PR (unconfirmed and confirmed), patients (PANC): 2
Best observed response SD, patients (PANC): 2
Best overall response (BOR): Complete Response (CR), % (Total (N = 22)): (0.0) %
Best overall response (BOR): No Evaluable (NE), % (Total (N = 22)): (4.5) %
Best overall response (BOR): Partial Response (PR), % (Total (N = 22)): (18.2) %
Best overall response (BOR): Partial Response, pending confirmation and ongoing (uPR), % (Total (N = 22)): (0.0) %
Best overall response (BOR): Progressive Disease (PD), % (Total (N = 22)): (22.7) %
Best overall response (BOR): Stable Disease (SD), % (Total (N = 22)): (54.5) %
Disease control rate (CR + PR + uPR + SD), % (Total (N = 22)): (72.7) %
Objective response rate (CR + PR), % (Total (N = 22)): (18.2) %
Objective response rate, confirmed and unconfirmed (CR + PR + uPR), % (Total (N = 22)): (18.2) %
Best overall response (BOR): Complete Response (CR), % (With Prior KRAS G12Ci (N = 14)): (0.0) %
Best overall response (BOR): No Evaluable (NE), % (With Prior KRAS G12Ci (N = 14)): (7.1) %
Best overall response (BOR): Partial Response (PR), % (With Prior KRAS G12Ci (N = 14)): (7.1) %
Best overall response (BOR): Partial Response, pending confirmation and ongoing (uPR), % (With Prior KRAS G12Ci (N = 14)): (0.0) %
Best overall response (BOR): Progressive Disease (PD), % (With Prior KRAS G12Ci (N = 14)): (28.6) %
Best overall response (BOR): Stable Disease (SD), % (With Prior KRAS G12Ci (N = 14)): (57.1) %
Disease control rate (CR + PR + uPR + SD), % (With Prior KRAS G12Ci (N = 14)): (64.3) %
Objective response rate (CR + PR), % (With Prior KRAS G12Ci (N = 14)): (7.1) %
Objective response rate, confirmed and unconfirmed (CR + PR + uPR), % (With Prior KRAS G12Ci (N = 14)): (7.1) %
Best overall response (BOR): Complete Response (CR), % [1]: (0.0) %
Best overall response (BOR): No Evaluable (NE), % [1]: (0.0) %
Best overall response (BOR): Partial Response (PR), % [1]: (37.5) %
Best overall response (BOR): Partial Response, pending confirmation and ongoing (uPR), % [1]: (0.0) %
Best overall response (BOR): Progressive Disease (PD), % [1]: (12.5) %
Best overall response (BOR): Stable Disease (SD), % [1]: (50.0) %
Disease control rate (CR + PR + uPR + SD), % [1]: (87.5) %
Objective response rate (CR + PR), % [1]: (37.5) %
Objective response rate, confirmed and unconfirmed (CR + PR + uPR), % [1]: (37.5) %
Duration of response (DOR) 6 to <9 months (Total (N = 75)): 3 (15.8) n (%)
Duration of response (DOR) <6 months (Total (N = 75)): 16 (84.2) n (%)
Time to response (TTR) 2 to <4 months (Total (N = 75)): 2 (10.5) n (%)
Time to response (TTR) 4 to <6 months (Total (N = 75)): 2 (10.5) n (%)
Time to response (TTR) 6 to <9 months (Total (N = 75)): 1 (5.3) n (%)
Time to response (TTR) <2 months (Total (N = 75)): 14 (73.7) n (%)
Duration of response (DOR) 6 to <9 months [2]: 0 (0.0) n (%)
Duration of response (DOR) <6 months [2]: 2 (100.0) n (%)
Time to response (TTR) 2 to <4 months [2]: 0 (0.0) n (%)
Time to response (TTR) 4 to <6 months [2]: 0 (0.0) n (%)
Time to response (TTR) 6 to <9 months [2]: 0 (0.0) n (%)
Time to response (TTR) <2 months [2]: 2 (100.0) n (%)
Duration of response (DOR) 6 to <9 months [3]: 0 (0.0) n (%)
Duration of response (DOR) <6 months [3]: 7 (100.0) n (%)
Time to response (TTR) 2 to <4 months [3]: 1 (14.3) n (%)
Time to response (TTR) 4 to <6 months [3]: 0 (0.0) n (%)
Time to response (TTR) 6 to <9 months [3]: 1 (14.3) n (%)
Time to response (TTR) <2 months [3]: 5 (71.4) n (%)
Duration of response (DOR) 6 to <9 months [4]: 2 (33.3) n (%)
Duration of response (DOR) <6 months [4]: 4 (66.7) n (%)
Time to response (TTR) 2 to <4 months [4]: 0 (0.0) n (%)
Time to response (TTR) 4 to <6 months [4]: 2 (33.3) n (%)
Time to response (TTR) 6 to <9 months [4]: 0 (0.0) n (%)
Time to response (TTR) <2 months [4]: 4 (66.7) n (%)
Duration of response (DOR) 6 to <9 months [5]: 1 (25.0) n (%)
Duration of response (DOR) <6 months [5]: 3 (75.0) n (%)
Time to response (TTR) 2 to <4 months [5]: 1 (25.0) n (%)
Time to response (TTR) 4 to <6 months [5]: 0 (0.0) n (%)
Time to response (TTR) 6 to <9 months [5]: 0 (0.0) n (%)
Time to response (TTR) <2 months [5]: 3 (75.0) n (%)
Patients with best overall response of CR or PR (Phase 1a, Total (N = 75)): 19 (25.3) N′ (%)
Time to response (months), Interquartile range (Phase 1a, Total (N = 75)): 1.45 months
Time to response (months), Median (Phase 1a, Total (N = 75)): 1.41 months
Duration of response (months), Median (Phase 1a, Total (N = 75), Kaplan-Meier estimate): 6.24 months
% Change from Baseline in Sum of Diameters for all Target Lesions (Phase 1a, individual patients, starting dose 50 BID, no prior KRAS G12Ci, listed as compound of Formula I): 9.7% and −0.3% and −6.0% and −8.6% and −9.9% and −10.5% and −13.1% and −17.1% and −26.8% and −31.6% and −45.0%
